Experimental data: patent US20240165089A1, “METHOD FOR TREATING MYOPIA WITH VINPOCETINE” (EYE HOSPITAL, WENZHOU MEDICAL UNIVERSITY, priority 2021, published 2024)
Values joined by “and” are separate entries in the source; they are usually repeats but may differ in a detail not shown here. Equal entries are not always repeated.

How the values were obtained:
[1] = test system: form deprivation myopia model of guinea pigs; assay: FDM guinea pig model, subconjunctival injection, salmeterol/tiotropium/vinpocetine; details: 0.1% atropine, 2 weeks
Source text: The form deprivation myopia model of guinea pigs described in the present invention was used to evaluate the efficacy. […] On the first day of the experiment, guinea pigs were subjected to form deprivation at 8 a.m. using a mask method, with the right eye covered (experimental eye) and the left eye uncovered (contralateral eye). Starting from the day of modeling, solvents or drugs for the corresponding groups were given to the experimental eyes at 9-10 a.m. every day by eyeball subconjunctival injection at an injection volume of 100 μL, once a day for 2 weeks. The refraction and axial parameters of the animals were detected before the start of the efficacy experiment and at the end of the experiment. All data collection and processing methods were the same as in other embodiments of the present invention. The statistical basis was the difference between the experimental eye and the contralateral eye of the same subject individual.

[2] = test system: form deprivation myopia model of guinea pigs; assay: FDM guinea pig model, subconjunctival injection of AVA; assay type: in vivo; details: 1 week
Description: The modeling method for myopic individuals was the same as other embodiments of the present invention. […] No other active substances or excipients were added.

[3] = test system: form deprivation myopia model of guinea pigs; assay: FDM guinea pig model, eye drops (non-invasive administration); assay type: in vivo
Description: The purpose of this experiment was to evaluate the effect of vinpocetine on myopia through non-invasive administration. All tested drugs were formulated into eye drops. […] No other active substances or excipients were added to the above eye drops.

[4] = 0.1% atropine eye drops, 2 weeks
[5] = 0.1% atropine eye drops, 2 weeks (rounded and actual value)

Row | Structure (SMILES) | corneal curvature (RCC), anterior chamber depth (ACD) and lens thickness (LT) [1] | pupil dilation ([1]; subconjunctival) | refraction change towards negative, axial length elongation and vitreous chamber depth increase vs negative control ([1]; FDM, subconjunctival) | efficacy as positive control ([2]; 0.1% atropine subconjunctival) | pupil dilation ([2]; 0.1% atropine subconjunctival) | therapeutic effect on the guinea pig myopia model ([3]; 0.01% atropine eye drops, same administration conditions) | inhibition rate for the vitreous chamber depth [3, 4] [%] | refraction inhibition rate [3, 4] [%] | axial length difference between the eyes [3, 5] | vitreous chamber depth difference between the eyes [3, 5] | pupil dilation ([3]; 0.1% atropine eye drops, during administration) | refraction difference between the eyes (model-induced myopia) ([3]; FDM, 0.1% atropine eye drops 25 μL twice a day, 2 weeks) [D] | axial length difference between the eyes ([2]; AVA 1 μM) [mm] | inhibition rate for the axial length ([2]; AVA 1 μM) [%] | inhibition rate for the vitreous chamber depth ([2]; AVA 1 μM) [%] | ocular abnormalities ([2]; AVA 1 μM) | refraction inhibition rate ([2]; AVA 1 μM) [%] | vitreous chamber depth difference between the eyes ([2]; AVA 1 μM) [mm] | refraction difference between the eyes ([2]; FDM, AVA 1 μM subconjunctival 100 μL once a day) [D]
1 | CN1[C@@H]2CC[C@H]1C[C@@H](OC(=O)C(CO)c1ccccc1)C2 (stereo partly shown) [atropine] | not affected by the drug | pupil dilation occurred | significantly inhibited | showed its due efficacy | Pupil dilation occurred | did not have any therapeutic effect | 21.8 | 40.0 | 0.11±0.05 mm and 0.1093±0.0530 mm | 0.11±0.05 mm and 0.1107±0.0502 mm | Adverse reactions of pupil dilation occurred | −3.93±1.75 |  |  |  |  |  |  | 
2 | CC[C@@]12C=C(C(=O)O)n3c4c(c5ccccc53)CCN(CCC1)[C@H]42 [AVA, apovincaminic acid] |  |  |  |  |  |  |  |  |  |  |  |  | 0.07±0.03 | 36.4 | 34.7 | no ocular abnormalities were observed | 39.6 | 0.06±0.02 | −2.65±1.18
